Measured values reported in US20150139973A1, “OPHTHALMOLOGICAL VEHICLE SYSTEM FOR DRUGS, OPHTHALMOLOGICAL KIT AND ALSO USE OF AN OPHTHALMOLOGICAL COMPOSITION” (F. HOLZER GMBH, priority 2012, published 2015).

Test system: human corneal epithelial cell line HCE-T
Test: Vitality determination on corneal epithelial cells in culture (Cell Titer Blue test)
Assay type: cell-based
Settings: 60 minutes incubation
Method: The cytotoxicity tests were performed on the human corneal epithelial cell line […]. in the cell test. Cultivation was effected in a black 96 well plate (Nunc). Per well, 25,000 cells were sown and cultivated for 48 h. Determination of the viability was implemented with the Cell Titer Blue® test. The dye resazurin is hereby added to the cells after exposure with the samples. Viable cells are able, because of their mitochondrial activity, to convert the resazurin into the fluorescent resorufin which can be determined fluorimetrically (Illustration 1). Via positive control (Krebs-Ringer-buffer-KRB and saline phosphate buffer-PBS) and also negative control (lysis buffer), the viability of the cells can be expressed as a percentage. All samples were determined with n=6. For the determination, the cell culture medium was removed, the cells were rinsed with KRB and incubated for 60 minutes with the various samples and also controls. […] Thereafter, all samples were treated with KRB and resazurin according to Promega protocol and measured with a Genios Plate Reader (Tecan).

`CCCCCCCCCCCCCCCC(=O)OC(C)C` [Sample K4, isopropyl palmitate] was tested, and the cytotoxicity was “lowest cytotoxicity” and the “survival rate of the cells” value was 100%.
